This note sets out measurements from patent US10364256B2 (GlaxoSmithKline Intellectual Property Development Limited, priority 2015, dated 2019).

pIC50: −log10 of the molar value. A value given as a limit tells only on which side of the number the result lay.

The pIC50 is the negative decadic logarithm of the IC50, by convention in mol/L. High values mean a low IC50, low ones a high IC50.

The target of experiment [1] is T1, full length Keap1 protein / full length NRF2 protein (Homo sapiens, UniProt Q14145).
T1 construct: full length NRF2 protein and full length Keap1 protein (Keap1 exists a dimer) are used; His
As to the kind of experiment: NRF2-Keap1 TR-FRET Low Protein Assay. The class given is binding. The settings on record: 1.25 nM Keap1 FlagHis and 2.5 nM biotin-NRF2 added. The gist of the method:
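Flag-tagged full-length Keap1 was preincubated with compound (3-fold series) for 2.25 h at 37 °C in Tris pH 8.0/MgCl2/NaCl/BSA/DTT/CHAPS. Biotin-Avi-NRF2 (added at 2.5 nM) was then bound for 1.25 h at 4 °C. Eu-streptavidin/anti-Flag-APC TR-FRET (665/615 nm) was read after 1 h at RT, and pIC50 came from a four-parameter fit.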
On the technique in general: In TR-FRET formats the signal depends on donor and acceptor labels being close together.

In experiment [2] the target is T2, Keap1 Kelch domain (321-609) / TAMRA-labeled 16mer NRF2 peptide (ETGE motif) (Homo sapiens, UniProt Q14145).
T2 construct: the Kelch domain (321-609) of Keap1 is used
As to the kind of experiment: NRF2-Keap1 FP Assay (Keap1 Kelch fluorescence polarization). The class given is binding. Particulars: 20 nM Keap1 (321-609), 8 nM Tamra labeled peptide. The method in brief:
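Compound dilutions (3-fold) were incubated 1 hr at room temperature with 20 nM Keap1 Kelch (321-609) and 8 nM TAMRA-labeled ETGE 16mer peptide. Buffer was 50 mM Tris pH 8.0, 100 mM NaCl, 5 mM MgCl2, 1 mM DTT, 2 mM CHAPS, 0.005% BSA. Fluorescence polarization (mP) was normalized to controls and fitted with a four-parameter equation to give pIC50.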

T1 sequence (Q14145 whole entry): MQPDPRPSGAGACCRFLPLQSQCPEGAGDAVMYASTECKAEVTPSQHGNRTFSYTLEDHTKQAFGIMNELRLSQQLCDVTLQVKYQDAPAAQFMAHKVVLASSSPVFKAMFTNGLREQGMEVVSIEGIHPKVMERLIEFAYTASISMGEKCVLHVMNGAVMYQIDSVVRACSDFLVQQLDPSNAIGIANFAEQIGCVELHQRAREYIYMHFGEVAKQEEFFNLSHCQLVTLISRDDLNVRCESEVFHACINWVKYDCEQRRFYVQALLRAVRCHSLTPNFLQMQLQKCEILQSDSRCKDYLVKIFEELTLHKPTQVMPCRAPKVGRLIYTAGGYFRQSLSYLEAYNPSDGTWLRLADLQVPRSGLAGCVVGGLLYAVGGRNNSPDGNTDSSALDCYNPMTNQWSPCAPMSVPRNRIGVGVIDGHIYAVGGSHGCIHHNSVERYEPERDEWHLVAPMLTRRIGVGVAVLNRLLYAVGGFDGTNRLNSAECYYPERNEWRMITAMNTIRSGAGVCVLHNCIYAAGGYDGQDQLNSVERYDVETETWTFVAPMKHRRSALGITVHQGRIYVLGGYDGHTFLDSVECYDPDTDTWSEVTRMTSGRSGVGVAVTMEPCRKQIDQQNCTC
T2 sequence (Q14145 321-609): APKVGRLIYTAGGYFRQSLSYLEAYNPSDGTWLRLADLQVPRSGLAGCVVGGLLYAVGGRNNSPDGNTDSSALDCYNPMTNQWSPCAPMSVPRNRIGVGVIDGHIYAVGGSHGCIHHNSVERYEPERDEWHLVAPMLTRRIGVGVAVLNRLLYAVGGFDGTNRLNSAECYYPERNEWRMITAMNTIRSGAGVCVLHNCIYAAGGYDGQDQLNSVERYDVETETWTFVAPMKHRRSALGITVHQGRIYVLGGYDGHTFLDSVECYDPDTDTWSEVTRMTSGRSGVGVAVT

Regarding “1-(3′-((2-chlorocyclohexyl)methoxy)-[1,1′-biphenyl]-3-yl)-5-((1,2-trans)-2-(1-methyl-1H-1,2,3-triazol-4-yl)cyclopropyl)-1H-pyrazole-4-carboxylic acid [Example 186]”, the pIC50 in experiment [1] was 7.00 to 8.00; in experiment [2], 6.00 to 7.00.

Take `Cn1cc([C@@H]2C[C@H]2c2c(C(=O)O)cnn2-c2cccc(-c3cccc(-n4ncc5c4C(C)(C)CC5)c3)n2)nn1` (racemic) [Example 251, 1-(6-(3-(6,6-Dimethyl-5,6-dihydrocyclopenta[c]pyrazol-1(4H)-yl)phenyl)pyridin-2-yl)-5-(trans-2-(1-methyl-1H-1,2,3-triazol-4-yl)cyclopropyl)-1H-pyrazole-4-carboxylic Acid]: the negative-log IC50 (pIC50) is over 8.00 in experiment [1] and 7.00 to 8.00 in experiment [2].

Take `Cn1cc([C@@H]2C[C@H]2c2c(C(=O)O)cnn2-c2cccc(-c3cccc(CN4Cc5ccccc5OC(C)(C)C4)c3)c2)nn1` (racemic) [Example 254, 1-(3′-((2,2-Dimethyl-2,3-dihydrobenzo[f][1,4]oxazepin-4(5H)-yl)methyl)-[1,1′-biphenyl]-3-yl)-5-(trans-2-(1-methyl-1H-1,2,3-triazol-4-yl)cyclopropyl)-1H-pyrazole-4-carboxylic Acid]: the pIC50 in experiment [1] and in experiment [2] was 7.00 to 8.00 in each case.

As to `Cn1cc([C@H]2C[C@@H]2c2c(C(=O)O)cnn2-c2cccc(-c3cccc(C(=O)N4CCCCC4)c3F)c2)nn1` (racemic) [Example 258, 1-(2′-Fluoro-3′-(piperidine-1-carbonyl)-[1,1′-biphenyl]-3-yl)-5-(trans-2-(1-methyl-1H-1,2,3-triazol-4-yl)cyclopropyl)-1H-pyrazole-4-carboxylic Acid], the pIC50 is over 8.00 in experiment [1] and 7.00 to 8.00 in experiment [2].

For `Cn1cc([C@H]2C[C@@H]2c2c(C(=O)O)cnn2-c2cccc(-c3cccc(C(=O)N4CCCC(C)(C)C4)c3F)c2)nn1` (racemic) [Example 259, 1-(2′-Fluoro-3′-(3,3-dimethylpiperidine-1-carbonyl)-[1,1′-biphenyl]-3-yl)-5-(trans-2-(1-methyl-1H-1,2,3-triazol-4-yl)cyclopropyl)-1H-pyrazole-4-carboxylic Acid], the negative-log IC50 (pIC50) in experiment [1] is over 8.00; in experiment [2], 7.00 to 8.00.

Turning to `Cn1cc([C@H]2C[C@@H]2c2c(C(=O)O)cnn2-c2cccc(-c3cccc(C(=O)N4CCCCCC4)c3F)c2)nn1` (racemic) [Example 260, 1-(2′-Fluoro-3′-(azepane-1-carbonyl)-[1,1′-biphenyl]-3-yl)-5-(trans-2-(1-methyl-1H-1,2,3-triazol-4-yl)cyclopropyl)-1H-pyrazole-4-carboxylic Acid], the figures for the pIC50 in experiment [1] and in experiment [2] were over 8.00 and 7.00 to 8.00, respectively.

On to `CC1CC(C)CN(C(=O)c2cccc(-c3cccc(-n4ncc(C(=O)O)c4[C@@H]4C[C@H]4c4cn(C)nn4)c3)c2F)C1` (mixture of isomers) [Example 263, 1-(3′-(3,5-Dimethylpiperidine-1-carbonyl)-2′-fluoro-[1,1′-biphenyl]-3-yl)-5-(2-(1-methyl-1H-1,2,3-triazol-4-yl)cyclopropyl)-1H-pyrazole-4-carboxylic Acid], for which the negative-log IC50 (pIC50) in experiment [1] is over 8.00; in experiment [2] it was 7.00 to 8.00.

`COCC1CCCCN1C(=O)c1cccc(-c2cccc(-n3ncc(C(=O)O)c3C3C[C@H]3c3cn(C)nn3)c2)c1F` (mixture of isomers) [Example 264, 1-(3′-(2-(Methoxymethyl)piperidine-1-carbonyl)-2′-fluoro-[1,1′-biphenyl]-3-yl)-5-(trans-2-(1-methyl-1H-1,2,3-triazol-4-yl)cyclopropyl)-1H-pyrazole-4-carboxylic Acid]: the pIC50 in experiment [1] is over 8.00; in experiment [2], 7.00 to 8.00.

Regarding `CC(C)CN(C)C(=O)c1cccc(-c2cccc(-n3ncc(C(=O)O)c3[C@@H]3C[C@H]3c3cn(C)nn3)c2)c1F` (racemic) [Example 266, 1-(2′-Fluoro-3′(isobutyl(methyl)carbamoyl)-[1,1′-biphenyl]-3-yl)-5-(trans-2-(1-methyl-1H-1,2,3-triazol-4-yl)cyclopropyl)-1H-pyrazole-4-carboxylic Acid], the pIC50 is over 8.00 in experiment [1] and 7.00 to 8.00 in experiment [2].

In the case of `CC(Oc1cccc(-c2cccc(-n3ncc(C(=O)O)c3[C@@H]3C[C@H]3c3cn(C)nn3)n2)c1)C1CCCCC1` (relative stereo) [Example 249, 1-(6-(3-(1-Cyclohexylethoxy)phenyl)pyridin-2-yl)-5-(trans-2-(1-methyl-1H-1,2,3-triazol-4-yl)cyclopropyl)-1H-pyrazole-4-carboxylic Acid], the results for the negative-log IC50 (pIC50) in experiment [1] and in experiment [2] were over 8.00 and 7.00 to 8.00, respectively.

Regarding `CCC1Cc2ccccc2CN(Cc2cccc(-c3cccc(-n4ncc(C(=O)O)c4[C@@H]4C[C@H]4c4cn(C)nn4)c3)c2)C1` (relative stereo) [Example 252, 1-(3′-((4-Ethyl-4,5-dihydro-1H-benzo[c]azepin-2(3H)-yl)methyl)-[1,1′-biphenyl]-3-yl)-5-(trans-2-(1-methyl-1H-1,2,3-triazol-4-yl)cyclopropyl)-1H-pyrazole-4-carboxylic Acid], the negative logarithm of the IC50 (pIC50) in experiment [1] and in experiment [2] was 7.00 to 8.00 throughout.

For `C[C@@H]1CCC[C@H](C)N1C(=O)c1cccc(-c2cccc(-n3ncc(C(=O)O)c3[C@H]3C[C@@H]3c3cn(C)nn3)c2)c1F` (single isomer, unassigned) [Example 261], the pIC50 in experiment [1] was over 8.00; in experiment [2], 7.00 to 8.00.

For `C[C@@H]1CCC[C@H](C)N1C(=O)c1cccc(-c2cccc(-n3ncc(C(=O)O)c3[C@@H]3C[C@H]3c3cn(C)nn3)c2)c1F` (single isomer, unassigned) [Example 262], the pIC50 in experiment [1] was over 8.00; in experiment [2], 7.00 to 8.00.

Turning to `CCCC1CCCCN1C(=O)c1cccc(-c2cccc(-n3ncc(C(=O)O)c3C3CC3)c2)c1F` (stereo in doubt) [Example 54d, 5-Cyclopropyl-1-{3-[2-fluoro-3-((2R)-2-propylpiperidine-1-carbonyl)phenyl]phenyl}-1H-pyrazole-4-carboxylic Acid], the negative-log IC50 (pIC50) in experiment [1] and in experiment [2] was 7.00 to 8.00 each time.

`O=C(O)c1cnn(-c2cccc(-c3cccc(C(=O)N(CC4CC4)CC4CC4)c3F)c2)c1C1CC1` [Example 8, 1-(3-{3-[Bis(cyclopropylmethyl)carbamoyl]-2-fluorophenyl}phenyl)-5-cyclopropyl-1H-pyrazole-4-carboxylic Acid]: the negative-log IC50 (pIC50) in experiment [1] and in experiment [2] was 7.00 to 8.00 each time.

Consider `CC(C)CC1CCCCN1C(=O)c1cccc(-c2cccc(-n3ncc(C(=O)O)c3C3CC3)c2)c1F` (stereo not shown) [Example 28, 5-Cyclopropyl-1-(3-{2-fluoro-3-[2-(2-methylpropyl)piperidine-1-carbonyl]phenyl}phenyl)-1H-pyrazole-4-carboxylic Acid], for which the pIC50 in experiment [1] and in experiment [2] was 7.00 to 8.00 each time.

For `CC1CCCN(C(=O)c2cccc(-c3cccc(-n4ncc(C(=O)O)c4C4CC4)c3)c2F)CC1` (stereo not shown) [Example 29, 5-Cyclopropyl-1-{3-[2-fluoro-3-(4-methylazepane-1-carbonyl)phenyl]phenyl}-1H-pyrazole-4-carboxylic Acid], the pIC50 in experiment [1] and in experiment [2] was 7.00 to 8.00 each time.

Take `CC1CCC(C)N(C(=O)c2cccc(-c3cccc(-n4ncc(C(=O)O)c4C4CC4)c3)c2F)C1` (stereo not shown) [Example 30, 5-Cyclopropyl-1-{3-[3-(2,5-dimethylpiperidine-1-carbonyl)-2-fluorophenyl]phenyl}-1H-pyrazole-4-carboxylic Acid]: the negative-log IC50 (pIC50) was 6.00 to 7.00 in experiment [1] and 7.00 to 8.00 in experiment [2].

In the case of `O=C(O)c1cnn(-c2cccc(-c3cccc(C(=O)N4CCCC5CCCCC54)c3F)c2)c1C1CC1` (stereo not shown) [Example 31, 5-Cyclopropyl-1-{3-[3-(decahydroquinoline-1-carbonyl)-2-fluorophenyl]phenyl}-1H-pyrazole-4-carboxylic Acid], the pIC50 in experiment [1] was 7.00 to 8.00; in experiment [2], 6.00 to 7.00.

In the case of `O=C(O)c1cnn(-c2cccc(-c3cccc(C(=O)N4CCCCC4C4CCCC4)c3F)c2)c1C1CC1` (stereo not shown) [Example 33, 1-{3-[3-(2-Cyclopentylpiperidine-1-carbonyl)-2-fluorophenyl]phenyl}-5-cyclopropyl-1H-pyrazole-4-carboxylic Acid], the pIC50 in experiment [1] and in experiment [2] was 7.00 to 8.00 throughout.

For the compound `O=C(O)c1cnn(-c2cccc(-c3cccc(C(=O)N4C5CCCC4CCC5)c3F)c2)c1C1CC1` [Example 34, 1-[3-(3-{9-azabicyclo[3.3.1]nonane-9-carbonyl}-2-fluorophenyl)phenyl]-5-cyclopropyl-1H-pyrazole-4-carboxylic Acid], the pIC50 in experiment [1] and in experiment [2] was 7.00 to 8.00 in each case.

As to `O=C(O)c1cnn(-c2cccc(-c3cccc(C(=O)N4CCCC5(CCCC5)C4)c3F)c2)c1C1CC1` [Example 35, 1-[3-(3-{7-Azaspiro[4.5]decane-7-carbonyl}-2-fluorophenyl)phenyl]-5-cyclopropyl-1H-pyrazole-4-carboxylic Acid], the pIC50 in experiment [1] and in experiment [2] was 7.00 to 8.00 in each case.

`O=C(O)c1cnn(-c2cccc(-c3cccc(C(=O)N4CCCCC4CCC(F)(F)F)c3F)c2)c1C1CC1` (stereo not shown) [Example 38, 5-Cyclopropyl-1-(3-{2-fluoro-3-[2-(3,3,3-trifluoropropyl)piperidine-1-carbonyl]phenyl}phenyl)-1H-pyrazole-4-carboxylic Acid]: the pIC50 in experiment [1] and in experiment [2] was 7.00 to 8.00 each time.
